Laboratory results reported in PubChem BioAssay AID330 (DTP/NCI, 2004).
Several values for one entry are separate records, joined by “and”; a condition that tells them apart may be missing. Equal entries are not always repeated. Inconclusive results and toxic doses are left out.

Tested on: P388 leukemia ip, CD2F1 mice, survival T/C
Test: NCI In Vivo Anticancer Drug Screen. Data for tumor model P388 Leukemia (intraperitoneal) in CD2F1 (CDF1) mice
Settings: endpoint: median survival time, higher = longer survival
In short: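 Mice carrying the transplanted tumor received test compound or vehicle. Survival was recorded in each group, and the value is the treated-group measurement divided by that of the vehicle-treated control group.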

[1] = dose: 50.0 mg/kg/injection, schedule: Q01DX005 (ip), vehicle: saline with Tween-80
[2] = dose: 100.0 mg/kg/injection, schedule: Q01DX005 (ip), vehicle: saline with Tween-80
[3] = dose: 200.0 mg/kg/injection, schedule: Q01DX005 (ip), vehicle: saline with Tween-80
[4] = dose: 100.0 mg/kg/injection, schedule: Q04DX003 (ip), vehicle: saline
[5] = dose: 200.0 mg/kg/injection, schedule: Q04DX003 (ip), vehicle: saline
[6] = dose: 400.0 mg/kg/injection, schedule: Q04DX003 (ip), vehicle: saline
[7] = dose: 60.0 mg/kg/injection, schedule: Q01DX005 (ip), vehicle: saline
[8] = dose: 120.0 mg/kg/injection, schedule: Q01DX005 (ip), vehicle: saline
[9] = dose: 50.0 mg/kg/injection, schedule: Q01DX009 (ip), vehicle: saline
[10] = dose: 100.0 mg/kg/injection, schedule: Q01DX009 (ip), vehicle: saline
[11] = dose: 50.0 mg/kg/injection, schedule: Q01DX005 (ip), vehicle: Klucel (hydroxypropylcellulose) (HPC)
[12] = dose: 200.0 mg/kg/injection, schedule: Q01DX009 (ip), vehicle: saline
[13] = dose: 50.0 mg/kg/injection, schedule: Q01DX009 (ip), vehicle: Klucel (hydroxypropylcellulose) (HPC)
[14] = dose: 100.0 mg/kg/injection, schedule: Q01DX009 (ip), vehicle: Klucel (hydroxypropylcellulose) (HPC)
[15] = dose: 200.0 mg/kg/injection, schedule: Q01DX009 (ip), vehicle: Klucel (hydroxypropylcellulose) (HPC)
[16] = dose: 60.0 mg/kg/injection, schedule: Q01DX005 (ip), vehicle: saline with Tween-80
[17] = dose: 120.0 mg/kg/injection, schedule: Q01DX005 (ip), vehicle: saline with Tween-80
[18] = dose: 6.25 mg/kg/injection, schedule: Q01DX005 (ip), vehicle: saline with Tween-80
[19] = dose: 12.5 mg/kg/injection, schedule: Q04DX002 (ip), vehicle: Klucel (hydroxypropylcellulose) (HPC)
[20] = dose: 25.0 mg/kg/injection, schedule: Q04DX002 (ip), vehicle: Klucel (hydroxypropylcellulose) (HPC)
[21] = dose: 100.0 mg/kg/injection, schedule: Q01DX005 (ip), vehicle: Klucel (hydroxypropylcellulose) (HPC)
[22] = dose: 200.0 mg/kg/injection, schedule: Q01DX005 (ip), vehicle: Klucel (hydroxypropylcellulose) (HPC)

`O=S1(=O)NC(=NC2CCCCC2)c2ccccc21` was tested, and the T/C [1] was 105 % of control, the T/C [2] was 105 % of control and the T/C [3] was 99 % of control.

`CC1CCC2(C(=O)O)CCC3(C)C(=CCC4C5(C)CC(O)C(O)C(C)(C(=O)O)C5CCC43C)C2C1(C)O` (stereo not drawn) was tested, and the T/C (dose: 33.0 mg/kg/injection, schedule: Q01DX001 (ip), vehicle: saline with Tween-80) was 100 % of control, the T/C (dose: 50.0 mg/kg/injection, schedule: Q01DX001 (ip), vehicle: saline with Tween-80) was 100 % of control and the T/C (dose: 75.0 mg/kg/injection, schedule: Q01DX001 (ip), vehicle: saline with Tween-80) was 90 % of control.

For `CCC[As](CCC)SC1CCC2(C)C(=CCC3C4CCC(=O)C4(C)CCC32)C1` (stereo not drawn), the T/C (dose: 12.5 mg/kg/injection, schedule: Q01DX009 (ip), vehicle: distilled water + Tween-80) was 98 % of control, the T/C (dose: 25.0 mg/kg/injection, schedule: Q01DX009 (ip), vehicle: distilled water + Tween-80) was 98 % of control and the T/C (dose: 50.0 mg/kg/injection, schedule: Q01DX009 (ip), vehicle: distilled water + Tween-80) was 95 % of control. For the same molecule, the T/C (dose: 100.0 mg/kg/injection, schedule: Q01DX009 (ip), vehicle: distilled water + Tween-80) was 92 % of control and the T/C (dose: 200.0 mg/kg/injection, schedule: Q01DX009 (ip), vehicle: distilled water + Tween-80) was 98 % of control.

`Cc1ccc(S(=O)(=O)/C=C/C(=O)c2ccc3ccccc3c2)cc1` was tested, and the T/C [4] was 103 % of control, the T/C [5] was 103 % of control and the T/C [6] was 100 % of control.

`CCCCNC1c2ccccc2CCC1O` (stereo not drawn) was tested, and the T/C (dose: 100.0 mg/kg/injection, schedule: Q01DX001 (ip), vehicle: Klucel (hydroxypropylcellulose) (HPC)) was 97 % of control, the T/C (dose: 100.0 mg/kg/injection, schedule: Q04DX002 (ip), vehicle: Klucel (hydroxypropylcellulose) (HPC)) was 118 % of control and the T/C (dose: 200.0 mg/kg/injection, schedule: Q01DX001 (ip), vehicle: Klucel (hydroxypropylcellulose) (HPC)) was 99 % of control.

For `CCn1c(=O)c2[nH]c(Cl)nc2n(CCCl)c1=O`, the T/C (dose: 16.0 mg/kg/injection, schedule: Q01DX009 (ip), vehicle: Klucel (hydroxypropylcellulose) (HPC)) was 102 % of control and 118 % of control, the T/C (dose: 32.0 mg/kg/injection, schedule: Q01DX009 (ip), vehicle: Klucel (hydroxypropylcellulose) (HPC)) was 111 % of control and 117 % of control and the T/C (dose: 64.0 mg/kg/injection, schedule: Q01DX009 (ip), vehicle: Klucel (hydroxypropylcellulose) (HPC)) was 122 % of control. For the same molecule, the T/C (dose: 128.0 mg/kg/injection, schedule: Q01DX009 (ip), vehicle: Klucel (hydroxypropylcellulose) (HPC)) was 110 % of control.

With `Nc1nc(-c2cc(-c3cccs3)nc(N)n2)cc(-c2cccs2)n1` the T/C [7] was 97 % of control and the T/C [8] was 100 % of control.

For `CCN(CC)CC.[CH-]1CCCCC1.[CH-]1CCCCC1.[CH3-].[Cl-].[I-].[Sn+4]`, the T/C (dose: 6.0 mg/kg/injection, schedule: Q01DX005 (ip), vehicle: saline with Tween-80) was 101 % of control and the T/C (dose: 12.0 mg/kg/injection, schedule: Q01DX005 (ip), vehicle: saline with Tween-80) was 102 % of control.

`Cc1csc(=S)n1C` was tested, and the T/C [9] was 92 % of control and the T/C [10] was 95 % of control.

For `O=C1C2=C(Nc3ccccc3N2)OC1c1ccco1` (stereo not drawn), the T/C (dose: 12.5 mg/kg/injection, schedule: Q01DX005 (ip), vehicle: Klucel (hydroxypropylcellulose) (HPC)) was 103 % of control, the T/C (dose: 25.0 mg/kg/injection, schedule: Q01DX005 (ip), vehicle: Klucel (hydroxypropylcellulose) (HPC)) was 100 % of control and the T/C [11] was 102 % of control and 89 % of control.

`CC(C)=CBr` was tested, and the T/C [9] was 105 % of control, the T/C [10] was 105 % of control and the T/C [12] was 110 % of control.

In the case of `O=C(O)CC12CC3CC(CC(C3)C1)C2`, the T/C [13] is reported as 102 % of control, the T/C [14] is reported as 103 % of control and the T/C [15] is reported as 102 % of control.

With `C/C(=C\C1C/C(=C/CCc2ccoc2)C(=O)O1)CCCc1ccoc1` (stereo not drawn) the T/C (dose: 25.0 mg/kg/injection, schedule: Q01DX009 (ip), vehicle: saline + alcohol) was 100 % of control and the T/C (dose: 50.0 mg/kg/injection, schedule: Q01DX009 (ip), vehicle: saline + alcohol) was 107 % of control.

For `O=C(Nc1ccc(Br)c2ccccc12)c1ccc2ccccc2c1O`, the T/C [16] was 91 % of control and the T/C [17] was 92 % of control.

For `O=C(O)C1CSC(c2ccccc2O)N1` (stereo not drawn), the T/C [9] was 90 % of control, the T/C [10] was 96 % of control and the T/C [12] was 90 % of control.

With `CSc1nc(SC)c2cnn(Cc3ccccc3)c2n1` the T/C [1] was 96 % of control, the T/C [2] was 95 % of control and the T/C [3] was 93 % of control.

With `COc1cc(-c2ccc(N=Nc3c(O)c(C(=O)Nc4ccccc4OC)cc4ccccc34)c(OC)c2)ccc1N=Nc1c(O)c(C(=O)Nc2ccccc2OC)cc2ccccc12` the T/C [18] was 90 % of control, the T/C (dose: 12.5 mg/kg/injection, schedule: Q01DX005 (ip), vehicle: saline with Tween-80) was 96 % of control and the T/C (dose: 25.0 mg/kg/injection, schedule: Q01DX005 (ip), vehicle: saline with Tween-80) was 89 % of control.

With `FC(F)(F)c1ccccc1N=Cc1cccs1` the T/C [9] was 113 % of control, the T/C [10] was 103 % of control and the T/C [12] was 104 % of control.

For `CNc1ccc2ccc(N(C)C)cc2n1`, the T/C [19] was 102 % of control, the T/C [20] was 97 % of control and the T/C (dose: 50.0 mg/kg/injection, schedule: Q04DX002 (ip), vehicle: Klucel (hydroxypropylcellulose) (HPC)) was 101 % of control.

In the case of `CCOP1(OCC)(OCC)OC(C(F)(F)F)(C(F)(F)F)C(C(F)(F)F)(C(F)(F)F)O1`, the T/C (dose: 6.25 mg/kg/injection, schedule: Q01DX009 (ip), vehicle: saline with Tween-80) is reported as 100 % of control and the T/C (dose: 12.5 mg/kg/injection, schedule: Q01DX009 (ip), vehicle: saline with Tween-80) is reported as 105 % of control.

With `Cc1ccccc1C(=Nc1ccccc1)Oc1ccccc1[N+](=O)[O-]` the T/C [4] was 100 % of control, the T/C [5] was 100 % of control and the T/C [6] was 100 % of control.

In the case of `CC(C(=O)c1ccc(Cl)cc1)c1ccccc1` (stereo not drawn), the T/C [9] is reported as 96 % of control, the T/C [10] is reported as 105 % of control and the T/C [12] is reported as 99 % of control.

With `CCN(CC)CCn1[nH]c2c3ccc(=O)cc3sc3c(NCCN)ccc1c32` the T/C (dose: 3.12 mg/kg/injection, schedule: Q01DX005 (ip), vehicle: water) was 122 % of control and 229 % of control and 242 % of control, the T/C (dose: 6.25 mg/kg/injection, schedule: Q01DX005 (ip), vehicle: water) was 184 % of control and 250 % of control and 280 % of control and the T/C (dose: 12.5 mg/kg/injection, schedule: Q01DX005 (ip), vehicle: water) was 166 % of control and 194 % of control and 271 % of control.

With `COc1nc(N)nc2c1ncn2C1OC(CO)CC1O` (stereo not drawn) the T/C [1] was 86 % of control, the T/C [2] was 88 % of control and the T/C [3] was 97 % of control.

In the case of `CCC(=O)Nc1ccc(N=NN(C)C)cc1`, the T/C (dose: 6.25 mg/kg/injection, schedule: Q04DX002 (ip), vehicle: Klucel (hydroxypropylcellulose) (HPC)) is reported as 97 % of control, the T/C [19] is reported as 106 % of control and the T/C [20] is reported as 100 % of control and 109 % of control.

With `Brc1ccc(/C=C/c2ccnnc2)cc1` the T/C [9] was 93 % of control, the T/C [10] was 94 % of control and the T/C [12] was 100 % of control.

`[O]=[Mo](=[O])=[O]` was tested, and the T/C [7] was 100 % of control, the T/C [8] was 110 % of control and the T/C (dose: 240.0 mg/kg/injection, schedule: Q01DX005 (ip), vehicle: saline) was 115 % of control.

`c1ccc2c(c1)cnc1ccccc12` was tested, and the T/C [11] was 97 % of control, the T/C [21] was 104 % of control and the T/C [22] was 104 % of control.

`N#CN(Cc1ccccc1)C(c1ccccc1)(c1ccccc1)c1ccccc1.[I][Sn]([c]1ccccc1)([c]1ccccc1)[c]1ccccc1` was tested, and the T/C (dose: 3.12 mg/kg/injection, schedule: Q01DX005 (ip), vehicle: saline with Tween-80) was 98 % of control and the T/C [18] was 92 % of control.

With `COc1cc(OC)c(C2CC(C)(OC)Oc3cc4c(cc32)OCO4)c(OC)c1` (stereo not drawn) the T/C [1] was 103 % of control, the T/C [2] was 97 % of control and the T/C [3] was 90 % of control.

`CC1=Nc2ccc(C(F)(F)F)cc2NC(=O)C1` was tested, and the T/C [11] was 100 % of control, the T/C [21] was 99 % of control and 97 % of control and the T/C [22] was 100 % of control and 96 % of control.

With `CCCCCCCCCCCCCCCCN1CCS(=O)(=O)CC1` the T/C [13] was 108 % of control, the T/C [14] was 100 % of control and 98 % of control and the T/C [15] was 101 % of control and 88 % of control.

For `CC1(C)C=Cc2c(ccc3c(=O)c(-c4ccccc4)coc23)O1`, the T/C [16] was 94 % of control, the T/C [17] was 98 % of control and the T/C (dose: 240.0 mg/kg/injection, schedule: Q01DX005 (ip), vehicle: saline with Tween-80) was 93 % of control.

With `CN(C)NCCCCCNN(C)C` the T/C [11] was 100 % of control, the T/C [21] was 102 % of control and the T/C [22] was 102 % of control.
